Results as given in patent US20230113037A1 (Bayer Aktiengesellschaft, priority 2019, published 2023).
Where two headings read alike, the source gives them in different places.

Assays:
AHR [1] = target: T1, AHR (Homo sapiens, UniProt P35869); assay: In vitro assay 1: antagonism in human cell line (AHR transactivation, firefly luciferase reporter, kynurenic acid prestimulated); assay type: cell-based; conditions: AHR Antagonism Human IC50 [M]
T1 construct: U87 MG glioblastoma cells (ATCC #HTB-14) endogenously expressing AHR; endogenous in cells; host or cells: U87 MG glioblastoma cells (ATCC #HTB-14)
T1 sequence (P35869 11-848): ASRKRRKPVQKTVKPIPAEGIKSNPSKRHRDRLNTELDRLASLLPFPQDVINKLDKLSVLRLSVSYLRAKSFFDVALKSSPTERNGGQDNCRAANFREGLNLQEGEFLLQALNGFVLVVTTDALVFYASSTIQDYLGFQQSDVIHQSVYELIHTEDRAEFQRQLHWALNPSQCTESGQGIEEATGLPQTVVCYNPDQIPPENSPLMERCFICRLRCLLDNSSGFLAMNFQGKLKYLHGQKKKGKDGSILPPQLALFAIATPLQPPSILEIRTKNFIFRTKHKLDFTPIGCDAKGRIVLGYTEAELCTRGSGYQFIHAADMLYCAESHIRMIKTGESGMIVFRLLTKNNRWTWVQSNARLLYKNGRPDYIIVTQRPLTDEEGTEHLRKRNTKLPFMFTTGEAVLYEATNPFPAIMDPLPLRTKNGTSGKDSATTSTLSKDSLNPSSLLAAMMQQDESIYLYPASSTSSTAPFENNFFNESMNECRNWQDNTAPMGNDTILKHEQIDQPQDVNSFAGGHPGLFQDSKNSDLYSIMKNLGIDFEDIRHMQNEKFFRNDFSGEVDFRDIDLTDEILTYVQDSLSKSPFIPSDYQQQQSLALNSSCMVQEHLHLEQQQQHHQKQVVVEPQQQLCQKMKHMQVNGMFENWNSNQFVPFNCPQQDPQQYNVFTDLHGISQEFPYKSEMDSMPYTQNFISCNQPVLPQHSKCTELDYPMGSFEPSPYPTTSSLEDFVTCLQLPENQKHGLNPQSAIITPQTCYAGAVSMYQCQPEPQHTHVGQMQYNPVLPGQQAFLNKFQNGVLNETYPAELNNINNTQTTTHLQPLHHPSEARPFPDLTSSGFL
In short: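 Antagonism is measured against kynurenic acid prestimulation in U87 MG glioblastoma cells carrying stable DRE-luciferase and Renilla reporters. Positive inhibition control: 150 μM kynurenic acid with 5 μM staurosporine. Values are normalized to controls; repeats are averaged or given as medians.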

AHR [2] = target: T2, AHR (Mus musculus, UniProt P30561); assay: In vitro assay 3: antagonism in mouse cell line (AHR transactivation, firefly luciferase reporter, kynurenic acid prestimulated); assay type: cell-based
T2 sequence (P30561 1-848 P471L/N533S/M589L): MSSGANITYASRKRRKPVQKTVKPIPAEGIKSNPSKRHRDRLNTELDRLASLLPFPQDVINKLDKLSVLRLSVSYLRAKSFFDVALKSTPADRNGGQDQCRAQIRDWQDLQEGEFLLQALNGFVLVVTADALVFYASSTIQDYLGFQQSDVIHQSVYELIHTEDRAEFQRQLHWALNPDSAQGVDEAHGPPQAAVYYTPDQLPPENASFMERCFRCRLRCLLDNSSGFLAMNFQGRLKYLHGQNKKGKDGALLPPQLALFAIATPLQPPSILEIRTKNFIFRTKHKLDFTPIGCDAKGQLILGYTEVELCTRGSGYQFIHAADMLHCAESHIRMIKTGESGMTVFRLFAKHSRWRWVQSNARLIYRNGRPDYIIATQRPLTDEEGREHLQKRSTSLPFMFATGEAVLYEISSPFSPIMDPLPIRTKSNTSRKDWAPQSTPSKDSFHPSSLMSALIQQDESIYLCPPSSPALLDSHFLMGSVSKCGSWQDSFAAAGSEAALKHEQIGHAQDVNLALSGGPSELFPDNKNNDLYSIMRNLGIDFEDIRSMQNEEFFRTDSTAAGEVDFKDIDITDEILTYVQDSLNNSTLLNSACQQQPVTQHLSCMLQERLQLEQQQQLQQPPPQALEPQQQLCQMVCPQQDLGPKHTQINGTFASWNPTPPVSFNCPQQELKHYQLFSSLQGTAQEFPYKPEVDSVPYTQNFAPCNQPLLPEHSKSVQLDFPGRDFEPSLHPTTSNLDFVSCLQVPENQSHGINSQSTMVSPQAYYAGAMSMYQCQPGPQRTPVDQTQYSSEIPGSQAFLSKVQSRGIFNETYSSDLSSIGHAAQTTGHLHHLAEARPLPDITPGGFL
In short: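 Kynurenic acid-prestimulated mouse reporter cells; stable AHR-inducible firefly luc construct with DRE sites in promoter. No-agonist wells = positive inhibition ctrl. Luminescence normalized to pos/neg ctrls; n>1 reported as mean or median.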

[3] = mouse Hepa 1c1c7 cells, 200 μM kynurenic acid, 20 hours, read-out: AHR Antagonism Mouse IC50
[4] = Hepa 1c1c7 cells, 200 μM kynurenic acid, 20 hours, firefly luciferase reporter, read-out: AHR Antagonism Mouse IC50

| IC50 (AHR [1]) [M] | IC50 (AHR [2]; [3]) [nM] | IC50 (AHR [1]; firefly luciferase reporter) [M] | IC50 (AHR [2]; [4]) [nM] | SMILES | also measured |
| --- | --- | --- | --- | --- | --- |
| 6.98e-08 | 17.1 | – | – | COc1ccc(-c2nc3c4ccccc4nc(N[C@@H]4CNCCNC4=O)n3n2)cc1OC [Example 409, (6R)-6-{[2-(3,4-dimethoxyphenyl)[1,2,4]triazolo[1,5-c]quinazolin-5-yl]amino}-1,4-diazepan-5-one] | – |
| 1.77e-08 | 2.96 | – | – | O=C1NCCCC[C@@H]1Nc1nc2c(Br)cccc2c2nc(-c3ccc(Cl)cc3OC(F)F)nn12 [Example 576, (3S)-3-({7-bromo-2-[4-chloro-2-(difluoromethoxy)phenyl][1,2,4]triazolo[1,5-c]quinazolin-5-yl}amino)azepan-2-one] | – |
| 3.41e-07 | 792 | – | – | Cc1cc2c(cc1C(F)F)nc(N[C@@H]1CCCCNC1=O)n1nc(-c3cnn(C)c3)nc21 [Example 405, (3R)-3-{[8-(difluoromethyl)-9-methyl-2-(1-methyl-1H-pyrazol-4-yl)[1,2,4]triazolo[1,5-c]quinazolin-5-yl]amino}azepan-2-one] | – |
| 1.97e-06 | 146 | – | – | N#Cc1cccc(-c2nc3c4ccccc4nc(N[C@H]4CCCCNC4=O)n3n2)c1 [Example 385, 3-(5-{[(3S)-2-oxoazepan-3-yl]amino}[1,2,4]triazolo[1,5-c]quinazolin-2-yl)benzonitrile] | – |
| 1.59e-08 | 53.6 | – | – | COc1ccc(-c2nc3c4ccccc4nc(N[C@@H]4CCNC4=O)n3n2)cc1 [Example 39, (3R)-3-{[2-(4-methoxyphenyl)[1,2,4]triazolo[1,5-c]quinazolin-5-yl]amino}pyrrolidin-2-one] | – |
| > 2e-05 | 5440 | – | – | O=C1NCC[C@H]1Nc1nc2ccccc2c2nc(-c3cc(C(F)(F)F)cc(C(F)(F)F)c3)nn12 [Example 360, (3R)-3-({2-[3,5-bis(trifluoromethyl)phenyl][1,2,4]triazolo[1,5-c]quinazolin-5-yl}amino)pyrrolidin-2-one] | – |
| 6.18e-10 | 1.97 | – | – | O=C1NCCCC[C@H]1Nc1nc2c(C(F)(F)F)cccc2c2nc(-c3cnn(C4CC4)c3)nn12 [Example 676, (3R)-3-{[2-(1-cyclopropyl-1H-pyrazol-4-yl)-7-(trifluoromethyl)[1,2,4]triazolo[1,5-c]quinazolin-5-yl]amino}azepan-2-one] | – |
| 3.72e-08 | 38.1 | – | – | O=C1NCCC[C@H]1Nc1nc2ccccc2c2nc(-c3ccccc3OC(F)F)nn12 [Example 472, (3R)-3-({2-[2-(difluoromethoxy)phenyl][1,2,4]triazolo[1,5-c]quinazolin-5-yl}amino)piperidin-2-one] | – |
| – | – | 6.97e-09 | 7.46 | O=C1NCCNC[C@H]1Nc1nc2c(Br)cccc2c2nc(-c3cnn(CC4CC4)c3)nn12 [Example 968, (6R)-6-({7-bromo-2-[1-(cyclopropylmethyl)-1H-pyrazol-4-yl][1,2,4]triazolo[1,5-c]quinazolin-5-yl}amino)-1,4-diazepan-5-one] | – |
| – | – | 8.28e-09 | 66.2 | CC(C)n1cc(-c2nc3c4cccc(C(F)(F)F)c4nc(N[C@@H]4CS(=O)(=O)CCNC4=O)n3n2)cn1 [Example 852, (6S)-6-({2-[1-(propan-2-yl)-1H-pyrazol-4-yl]-7-(trifluoromethyl)[1,2,4]triazolo[1,5-c]quinazolin-5-yl}amino)-1λ^6,4-thiazepane-1,1,5-trione] | – |
| 3.2e-08 | 62 | – | – | Cc1ccccc1-c1nc2c3ccccc3nc(NC3CCCNC3=O)n2n1 (single isomer, unassigned) [Example 48, 3-{[2-(2-methylphenyl)[1,2,4]triazolo[1,5-c]quinazolin-5-yl]amino}piperidin-2-one] | – |
| – | – | 1.26e-09 | 42 | COc1ccc(-c2nc3c4cccc(C5COC5)c4nc(N[C@@H]4CCCCNC4=O)n3n2)cc1 [Example 1002, (3R)-3-{[2-(4-methoxyphenyl)-7-(oxetan-3-yl)[1,2,4]triazolo[1,5-c]quinazolin-5-yl]amino}azepan-2-one] | – |
| – | – | 1.05e-09 | 0.99 | O=C1NCCCC[C@H]1Nc1nc2c(Cl)cccc2c2nc(-c3cnn(C4CC4)c3)nn12 [Example 816, (3R)-3-{[7-chloro-2-(1-cyclopropyl-1H-pyrazol-4-yl)[1,2,4]triazolo[1,5-c]quinazolin-5-yl]amino}azepan-2-one] | – |
| – | – | 8.61e-09 | 13.2 | CNCCNC(=O)[C@@H](C)Nc1nc2c(Br)cccc2c2nc(-c3ccc(OC)cc3)nn12 [Example 987, N^2-[7-bromo-2-(4-methoxyphenyl)[1,2,4]triazolo[1,5-c]quinazolin-5-yl]-N-[2-(methylamino)ethyl]-D-alaninamide-hydrogen chloride (1/1)] | – |
| – | – | 2.13e-09 | 3.01 | Cc1c(-c2nc3c4cccc(Br)c4nc(N[C@@H]4CCCCNC4=O)n3n2)cnn1C [Example 823, (3R)-3-{[7-bromo-2-(1,5-dimethyl-1H-pyrazol-4-yl)[1,2,4]triazolo[1,5-c]quinazolin-5-yl]amino}azepan-2-one] | – |
| – | – | 4.37e-09 | 10.9 | Cc1nn(C)cc1-c1nc2c3cccc(Br)c3nc(N[C@@H]3CNCCNC3=O)n2n1 [Example 962, (6R)-6-{[7-bromo-2-(1,3-dimethyl-1H-pyrazol-4-yl)[1,2,4]triazolo[1,5-c]quinazolin-5-yl]amino}-1,4-diazepan-5-one] | – |
| 1.36e-09 | 1.01 | – | – | CCn1cc(-c2nc3c4ccccc4nc(N[C@@H]4CCCCNC4=O)n3n2)c(C)n1 [Example 66, (3R)-3-{[2-(1-ethyl-3-methyl-1H-pyrazol-4-yl)[1,2,4]triazolo[1,5-c]quinazolin-5-yl]amino}azepan-2-one] | – |
| 1.37e-09 | 0.125 | – | – | CC[C@@H](Nc1nc2ccccc2c2nc(-c3ccsc3C)nn12)C(N)=O [Example 351] | – |
| 1.11e-07 | 154 | – | – | O=C1NCCCC[C@H]1Nc1nc2ccccc2c2nc(-c3cc[nH]n3)nn12 [Example 62, (3R)-3-{[2-(1H-pyrazol-3-yl)[1,2,4]triazolo[1,5-c]quinazolin-5-yl]amino}azepan-2-one] | – |

| SMILES | IC50 (AHR [1]) [M] | IC50 (AHR [2]; [3]) [nM] | IC50 (AHR [1]; firefly luciferase reporter) [M] | IC50 (AHR [2]; [4]) [nM] | also measured |
| --- | --- | --- | --- | --- | --- |
| O=C1NCCNC[C@H]1Nc1nc2c(Br)cccc2c2nc(-c3cnn(C4CC4)c3)nn12 [Example 952, (6R)-6-{[7-bromo-2-(1-cyclopropyl-1H-pyrazol-4-yl)[1,2,4]triazolo[1,5-c]quinazolin-5-yl]amino}-1,4-diazepan-5-one] | – | – | 3.97e-09 | – | IC50 (AHR [2]; read-out: AHR Antagonism Mouse IC50, Hepa 1c1c7 cells, 200 μM kynurenic acid, 20 hours, firefly luciferase reporter): 6.74 nM |
| CC[C@H](Nc1nc2ccccc2c2nc(-c3cn(C)nn3)nn12)C(N)=O [Example 690, (2S)-2-{[2-(1-methyl-1H-1,2,3-triazol-4-yl)[1,2,4]triazolo[1,5-c]quinazolin-5-yl]amino}butanamide] | > 2e-05 | – | – | – | IC50 (AHR [2]; read-out: AHR Antagonism Mouse IC50, mouse Hepa 1c1c7 cells, 200 μM kynurenic acid, 20 hours): > 20000 nM |
